EP4729529A1, “PREPARATION OF PEPTIDE INHIBITOR OF INTERLEUKIN-23 RECEPTOR AND USE THEREOF” (Xizang Haisco Pharmaceutical Co., Ltd., priority 2023, dated 2024)
Positions of bridges follow the written chain, without caps; N, C: chain ends. Non-standard residues stand in square brackets, D forms with d. Residues, ends and D or L forms follow the SMILES beside them. Trp(7-Me) = Cc1cccc2c(C[C@H](N)C(=O)O)c[nH]c12; 2Nal = N[C@@H](Cc1ccc2ccccc2c1)C(=O)O; AEF = NCCOc1ccc(C[C@H](N)C(=O)O)cc1; 3Pal = N[C@@H](Cc1cccnc1)C(=O)O; Cit = NC(=O)NCCC[C@H](N)C(=O)O; Pen = CC(C)(S)[C@H](N)C(=O)O; Thp = NC1(C(=O)O)CCOCC1; Sar = CNCC(=O)O

Legend:
IL-23R = target: T1, IL-23R (Homo sapiens, UniProt Q5VWK5); test: IL-23R reporter gene assay (HEK-blue IL23 reporter gene cell line, rhIL23 stimulation); type: cell-based; details: Inhibition of IL-23R, rhIL23 1 ng/mL, 24 hours
T1 construct: host or cells: HEK-blue IL23 reporter gene cell line
T1 sequence (Q5VWK5 24-629): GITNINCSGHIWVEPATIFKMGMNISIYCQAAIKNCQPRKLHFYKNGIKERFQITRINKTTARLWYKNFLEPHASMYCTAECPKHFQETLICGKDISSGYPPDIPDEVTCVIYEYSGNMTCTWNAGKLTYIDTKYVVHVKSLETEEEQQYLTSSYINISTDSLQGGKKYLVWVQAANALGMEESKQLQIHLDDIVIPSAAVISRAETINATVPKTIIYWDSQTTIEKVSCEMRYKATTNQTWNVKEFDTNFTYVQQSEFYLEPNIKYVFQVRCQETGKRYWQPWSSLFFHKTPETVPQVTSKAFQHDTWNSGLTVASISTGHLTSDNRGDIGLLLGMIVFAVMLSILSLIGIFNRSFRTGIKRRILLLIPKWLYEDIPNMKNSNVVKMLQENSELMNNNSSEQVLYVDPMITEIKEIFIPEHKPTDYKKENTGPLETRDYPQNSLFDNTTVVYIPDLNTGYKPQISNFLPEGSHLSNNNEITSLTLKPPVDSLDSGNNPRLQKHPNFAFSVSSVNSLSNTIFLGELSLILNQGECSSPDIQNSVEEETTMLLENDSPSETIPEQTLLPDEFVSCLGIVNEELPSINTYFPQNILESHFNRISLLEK
Description: 2. IL-23R reporter gene assay
The purpose of this assay was to assess the ability of compounds to inhibit the binding of IL23p19 to IL23R in a reporter gene system. The HEK-blue IL23 reporter gene cell line (Invivogen, hkb-il23) was cultured in DMEM + 10% FBS + 100 ug/mL Normocin medium. When the cell density reached 80%-90%, 5000 cells/well were plated into a 384-well plate, and the plate was incubated overnight at 37°C with 5% CO2. Then, the compound stock solution was diluted in DMSO, and 40 nL of the dilution was transferred into the 384-well culture plate by Echo. The plate was incubated at 37°C with 5% CO2 for 0.5 hours. 40 nL/well of rhIL23 (R&D, 1290-IL) was added to the 384-well cell culture plate at a final concentration of 1 ng/mL, and the plate was incubated at 37°C with 5% CO2 for 24 hours. 18 µL of Quanti-Blue™ solution was added to a new 384-well plate. 2 µL/well of cell culture supernatant was transferred into the 384-well plate prepared in Step 6, and the plate was incubated at 37°C with 5% CO2 for 1 hour. Absorbance values at […] were read on BMG. The binding ability of the compounds was assessed using the following formula, and IC50 values were obtained by fitting with Graphpad.
(§1) Calculation formula of inhibition rate: [formula] • where Data negative: mean of DMSO control group; and • Data positive: mean of non-IL23-stimulated group
The calculation formula of IC50 was as follows: Y = Bottom + (Top−Bottom)/(1+10^(∧)((LogIC50−X)*HillSlope)) [formula] • where X: concentration of compound; and • Y: inhibition rate of compound Table 2. Inhibition of IL-23R by test compounds

IL-23α/IL-12β and IL-23R = target: T2, IL-23α/IL-12β and IL-23R (Homo sapiens, UniProt Q5VWK5); test: IL-23α/IL-12β and IL-23R binding assay (TR-FRET/HTRF); details: inhibition of the binding of IL-23α/IL-12β to IL-23R, TR-FRET; both proteins 0.3 nM
T2 construct: purchased ACRO ILR-H82F3 (IL-23R); ILB-H52W5 (IL-23α/IL-12β)
T2 sequence (Q5VWK5 24-353 limits assumed): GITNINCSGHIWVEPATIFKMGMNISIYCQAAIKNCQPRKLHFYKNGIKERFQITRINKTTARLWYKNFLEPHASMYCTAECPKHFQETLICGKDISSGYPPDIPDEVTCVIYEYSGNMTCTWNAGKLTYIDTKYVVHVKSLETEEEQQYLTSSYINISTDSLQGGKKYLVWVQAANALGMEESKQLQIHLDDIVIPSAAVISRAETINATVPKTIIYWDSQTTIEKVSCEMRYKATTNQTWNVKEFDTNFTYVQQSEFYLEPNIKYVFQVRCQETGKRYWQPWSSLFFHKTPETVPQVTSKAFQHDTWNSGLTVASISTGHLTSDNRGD
In short: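 TR-FRET with IL-23α/IL-12β and IL-23R each at 0.3 nM in PPI buffer; compound preincubated with IL-23α/IL-12β 60 min at 25°C, then IL-23R and Tb/d2 detection reagents added for 60 min. HTRF 665/620 ratio; IC50 by nonlinear regression.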

[1] = target: (Homo sapiens, UniProt Q5VWK5); test: IL-23-stimulated pSTAT3 detection assay in PBMCs (ELISA); type: cell-based; details: rhIL23 stimulation 30 minutes, read-out: pSTAT3 inhibition/IC50
Description: 3. IL-23-stimulated pSTAT3 detection assay in PBMCs
Cryopreserved human PBMCs were thawed, and seeded onto a plate previously covered with an anti-CD3 antibody at 1 × 10^6 cells/well. Then, an anti-CD28 antibody was added to the plate, and the cells were incubated at 37°C with 5% CO2 for 5 days. On Day 5, the cells were seeded onto a 96-well plate at a density of 100K cells/well after 4 hours of stimulation by FBS starvation. The diluted Compound was transferred into the 96-well cell culture plate, and the plate was incubated at 37°C with 5% CO2 for 1 hour. rhIL23 (R&D, 1290-IL) was added to the cell culture plate, and the plate was incubated at 37°C with 5% CO2 for 30 minutes. The cells in the wells were lysed on ice with a lysis buffer containing 1× PHOSstop solution for 30 minutes, and the plate was centrifuged at 1000 rpm for 1 minute. Then, the supernatant was transferred into a 96-well ELISA plate, and pSTAT3 ELISA assay was performed according to the instructions of the kit (CST, 7300CA). Absorbance values at […] were read on PHERAstar FSX (BMG LRBTECH). The inhibition rate of the compounds was assessed using the following formula, and IC50 values were obtained by fitting with Graphpad.
as §1
The calculation formula of IC50 was as follows: Y = Bottom + (Top−Bottom)/(1+10^(∧)((LogIC50−X)*HillSlope)) [formula] • where X: concentration of compound; and • Y: inhibition rate of compound. Table 3. pSTAT3 inhibition

Chain of (Homo sapiens, UniProt Q5VWK5) (Q9NPF7 20-189 partner, other chains not shown): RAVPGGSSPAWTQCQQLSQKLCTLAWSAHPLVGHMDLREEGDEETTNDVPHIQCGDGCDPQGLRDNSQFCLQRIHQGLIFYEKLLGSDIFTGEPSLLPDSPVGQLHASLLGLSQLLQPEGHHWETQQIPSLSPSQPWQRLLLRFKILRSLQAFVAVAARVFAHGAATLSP
Chain of (Homo sapiens, UniProt Q5VWK5) (P29460 23-328 partner, other chains not shown): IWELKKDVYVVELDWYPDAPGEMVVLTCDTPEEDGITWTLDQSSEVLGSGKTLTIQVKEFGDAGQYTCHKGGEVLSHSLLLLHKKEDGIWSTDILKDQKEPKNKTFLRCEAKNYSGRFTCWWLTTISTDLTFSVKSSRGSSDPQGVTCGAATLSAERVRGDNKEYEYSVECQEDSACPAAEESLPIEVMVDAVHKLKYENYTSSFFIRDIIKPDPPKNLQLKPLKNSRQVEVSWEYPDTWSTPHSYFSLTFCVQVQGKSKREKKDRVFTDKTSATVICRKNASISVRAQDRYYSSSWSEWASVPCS

Question: `CC(=O)N[C@@H]1C(=O)N[C@@H](Cc2c[nH]cn2)C(=O)N[C@@H]([C@@H](C)O)C(=O)N[C@@H](Cc2c[nH]c3c(C)cccc23)C(=O)N[C@@H](CCC(N)=O)C(=O)N[C@H](C(=O)N[C@@H](Cc2ccc(OCCN)cc2)C(=O)N[C@@H](Cc2ccc3ccccc3c2)C(=O)NC2(C(=O)N[C@@H](CCC(=O)O)C(=O)N[C@@H](CC(N)=O)C(=O)N[C@@H](Cc3cccnc3)C(=O)N(C)CC(N)=O)CCOCC2)C(C)(C)SSC1(C)C` [Compound 1] (Ac-[Pen]HT[Trp(7-Me)]Q[Pen][AEF][2Nal][Thp]EN[3Pal][Sar]-NH2; disulfide 1-6) was tested. Which IC50 (IL-23R) did it give?
Answer: 1.1 nM

Question: And the IC50 (IL-23α/IL-12β and IL-23R)?
Answer: 0.0642 nM

Question: What about the IC50 [1] of the same compound?
Answer: 0.0071 nM

Question: With `CC(=O)N[C@@H]1C(=O)N[C@@H](Cc2c[nH]cn2)C(=O)N[C@@H]([C@@H](C)O)C(=O)N[C@@H](Cc2c[nH]c3c(C)cccc23)C(=O)N[C@@H](CCCNC(N)=O)C(=O)N[C@H](C(=O)N[C@@H](Cc2ccc(OCCN)cc2)C(=O)N[C@@H](Cc2ccc3ccccc3c2)C(=O)NC2(C(=O)N[C@@H](CCC(=O)O)C(=O)N[C@@H](CC(N)=O)C(=O)N[C@@H](Cc3cccnc3)C(=O)N(C)CC(N)=O)CCOCC2)C(C)(C)SSC1(C)C` [Compound 2] (Ac-[Pen]HT[Trp(7-Me)][Cit][Pen][AEF][2Nal][Thp]EN[3Pal][Sar]-NH2; disulfide 1-6) as the compound, how does the IC50 (IL-23R) read?
Answer: 1.21 nM

Question: And the IC50 (IL-23α/IL-12β and IL-23R)?
Answer: 0.0768 nM

Question: And the IC50 [1]?
Answer: 0.0068 nM

Question: Which IC50 (IL-23R) does the source give for `CC(=O)NCCCC[C@@H]1NC(=O)[C@H](Cc2c[nH]c3c(C)cccc23)NC(=O)[C@H]([C@@H](C)O)NC(=O)[C@H](Cc2c[nH]cn2)NC(=O)[C@@H](NC(C)=O)C(C)(C)SSC(C)(C)[C@@H](C(=O)N[C@@H](Cc2ccc(OCCN)cc2)C(=O)N[C@@H](Cc2ccc3ccccc3c2)C(=O)NC2(C(=O)N[C@@H](CCC(=O)O)C(=O)N[C@@H](CC(N)=O)C(=O)N[C@@H](Cc3cccnc3)C(=O)N(C)CC(N)=O)CCOCC2)NC1=O` [Compound 3] (Ac-[Pen]HT[Trp(7-Me)]K(Ac)[Pen][AEF][2Nal][Thp]EN[3Pal][Sar]-NH2; disulfide 1-6) here?
Answer: 1.36 nM

Question: What about the IC50 (IL-23α/IL-12β and IL-23R) of the same compound?
Answer: 0.174 nM

Question: What about the IC50 [1] of the same compound?
Answer: 0.0066 nM
